In patent US7807673B2, “2-pyrimidinyl pyrazolopyridine ErbB kinase inhibitors” (GlaxoSmithKline LLC, priority 2005, dated 2010):

Columns and labels:
[1] = tested on: BT474 and HN5 tumor cell lines; assay: Celltiter Glo growth inhibition assay (cellular Method B); assay type: cell-based; conditions: Homo sapiens, BT-474, 72 h; Table 2, Method B Celltiter Glo, 3 days; class over BT474 and HN5;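 note: class counts the more potent of the two cell lines (BT474 or HN5)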
Description: (§1) Human breast tumor cells (BT474) were cultured in RPMI, (Invitrogen, 22400) containing 10% fetal bovine serum (FBS). Human head and neck tumor cells (HN5) were cultured in low glucose DMEM (Invitrogen, 12320) containing 10% FBS. Human colon tumor cells (Colo205) were cultured in DMEM (Invitrogen, 10564) containing 10% FBS. All cell lines were maintained at 37° C. in a humidified 5% CO2, 95% air incubator. Cells were harvested using trypsin/EDTA, counted using a haemocytometer, and plated in 30 microliters of the appropriate media described above, at the following densities, in a half area, black-walled, 96-well tissue culture plate (Corning 3882): BT474 3,000 cells/well, HN5 500 cells/well and Colo205 cells, 3,000 cells/well. The next day, compounds were diluted in DMEM containing 100 mg/ml gentamicin, from 10 mM stock solutions in DMSO. 30 microliters/well of these dilutions were added to the 30 microliters/well of media currently on the cell plates. Medium containing 0.6% DMSO was added to control wells. The final concentration of DMSO in all wells was 0.3%. Cells were incubated at 37° C., 5% CO2 for 3 days. Cell biomass was estimated using Celltiter Glo (Promega G7571). Briefly, plates were removed from the incubator and allowed to equilibrate to rt for 30 minutes. 60 microliters of Celltiter Glo reagent were added to each well of the treated cells and plates were shaken on an orbital plate shaker for 2 min. Plates were incubated without shaking for 30 more min and read in a luminometer with an integration time of 0.5 seconds per well. Percent inhibition of cell growth was calculated relative to vehicle treated control wells. Concentration of compound that inhibits 50% of vehicle control cell growth (IC50) was interpolated using nonlinear regression (Levenberg-Marquardt) and the equation, y=Vmax*(1−(x/(K+x)))+Y2, where “K” was equal to the IC50.

Colo205 tumor cell lines = assay: as above; assay type: cell-based; conditions: Homo sapiens, COLO 205, 72 h, Table 3, Method B Celltiter Glo, 3 days
Description: as §1

ErbB2 or EGFR = target: T1, ErbB2 or EGFR; assay: ErbB enzyme substrate phosphorylation assay (HTRF), Method B (enzyme pre-incubated with compound 1 hour); assay type: biochemical; conditions: Table 1, enzyme Method B: enzyme mix incubated with compound 1 hour at 20° C., reaction started with substrate mix; class over ErbB2 or EGFR
T1 construct: enzymes purified from a baculovirus expression system
Description: Compounds of the present invention were tested for EGFR, ErbB-2, and ErbB-4 protein tyrosine kinase inhibitory activity in substrate phosphorylation assays using enzymes purified from a baculovirus expression system. Reagent production was conducted essentially as described in Brignola, P. S., et al, (2002) J. Biol. Chem. 277(2): 1576-1585.
The method measures the ability of the isolated enzyme to catalyse the transfer of the gamma-phosphate from ATP onto the tyrosine residue of a biotinylated synthetic peptide referenced “Peptide C” in Brignola, P. S., et al, (2002) J. Biol. Chem. 277(2):1576-1585. The extent of tyrosine phosphorylation was measured using an anti-phosphotyrosine antibody, and quantified by homogenous time-resolved fluorescence (HTRF).
Reactions were performed in black 384-well polystyrene flat-bottom plates in a final volume of 20 μl. Assays were performed by adding 10 μl of each of the following solutions, substrate Mix and enzyme mix: The Substrate mix contained 100 mM 3-[N-morpholino]propanesulfonic acid (MOPS) (pH 7.5), 2 mM MnCl2, 20 μM ATP, 0.01% Tween-20, 0.1 mg/mL (BSA), 0.8 uM peptide substrate, and 1 mM dithiothreitol. The enzyme mix contained 100 mM MOPS (pH7.5); 0.01% Tween-20; 0.1 mg/mL BSA, and either 0.8 nM EGFR, 10 nM ErbB2, or 1 nM ErbB4
During the course of these studies, two separate methods have been used to measure the potency of compounds. In Method A, the substrate mix was added to the compound plates first, then the reaction was started by adding the enzyme mix. In Method B, the enzyme mix was added to the compound plates and the plates were incubated at 20° C. for 1 hour. The reactions were then started by adding the substrate mix.
After initiating the reaction with either method describe above, the reactions were allowed to proceed for 90 minutes at 20° C. The reactions were then terminated by the addition of 20 μl 100 mM EDTA to each well. 40 μl/well of HTRF detection mix were added to the assay plates. The final concentrations of the detection reagents were: 100 mM HEPES (pH7.5), 0.1 mg/mL BSA, 15 nM streptavidin-labeled allophycocyanin (PerkinElmer), and 1 nM europium-labeled anti-phosphotyrosine antibody (PerkinElmer). Assay plates were left unsealed and were counted in a Wallac Multilabel Counter 1420 (PerkinElmer).
Compounds under analysis were dissolved in Me2SO to 1.0 mM and serially diluted 1 to 3 with Me2SO through twelve dilutions. 1 μl of each concentration was transferred to the corresponding well of an assay plate. This creates a final compound concentration range from 0.00027 to 47.6 μM.
The data for dose responses were plotted as % Inhibition calculated with the data reduction formula 100*(1−(U1−C2)/(C1−C2)) versus concentration of compound where U is the unknown value, C1 is the average control value obtained for 4.76% DMSO, and C2 is the average control value obtained for 0.035 M EDTA. Data were fitted with a curve described by: y=((Vmax*x)/(K+x))+Y2 where Vmax is the upper asymptote, Y2 is the Y intercept, and K is the IC50. The results for each compound were recorded as pIC50s, calculated as follows: pIC50=−Log 10(K)

| IC50 [1] [nM] | IC50 (Colo205 tumor cell lines) [nM] | Structure (SMILES) | Activity (Method) (ErbB2 or EGFR) |
| --- | --- | --- | --- |
| 100 to 1000 | 100 to 1000 | CN(C)Cc1cccc(Nc2nccc(-c3c(-c4ccc(F)c(NC(=O)Cc5cccs5)c4)nn4ccccc34)n2)c1 [Example 36, N-(5-{3-[2-({3-[(dimethylamino)methyl]phenyl}amino)-4-pyrimidinyl]pyrazolo[1,5-a]pyridin-2-yl}-2-fluorophenyl)-2-(2-thienyl)acetamide] | ++ (B) (at least one pIC50 measurement greater than 6 against either ErbB2 or EGFR but no measurement greater than pIC50 of 7) |
| < 100 | 100 to 1000 | CN(C)C1Cc2ccc(Nc3nccc(-c4c(-c5ccc(F)c(NC(=O)Cc6cccs6)c5)nn5ccccc45)n3)cc2C1 (stereo not drawn) [Example 37, N-{5-[3-(2-{[2-(dimethylamino)-2,3-dihydro-1H-inden-5-yl]amino}-4-pyrimidinyl)pyrazolo[1,5-a]pyridin-2-yl]-2-fluorophenyl}-2-(2-thienyl)acetamide] | +++ (B) (at least one pIC50 measurement of greater than 7 against either ErbB2 or EGFR) |
| 100 to 1000 | 100 to 1000 | CN(C)CCOc1cccc(Nc2nccc(-c3c(-c4ccc(F)c(NC(=O)Cc5cccs5)c4)nn4ccccc34)n2)c1 [Example 38, N-[5-(3-{2-[(3-{[2-(dimethylamino)ethyl]oxy}phenyl)amino]-4-pyrimidinyl}pyrazolo[1,5-a]pyridin-2-yl)-2-fluorophenyl]-2-(2-thienyl)acetamide] | ++ (B) (at least one pIC50 measurement greater than 6 against either ErbB2 or EGFR but no measurement greater than pIC50 of 7) |
| 100 to 1000 | 100 to 1000 | CN(C)CCNCc1cccc(Nc2nccc(-c3c(-c4cccc(NC(=O)Cc5cccs5)c4)nn4ccccc34)n2)c1 [Example 40, N-{3-[3-(2-{[3-({[2-(dimethylamino)ethyl]amino}methyl)phenyl]-amino}-4-pyrimidinyl)pyrazolo[1,5-a]pyridin-2-yl]phenyl}-2-(2-thienyl)acetamide] | +++ (B) (at least one pIC50 measurement of greater than 7 against either ErbB2 or EGFR) |
| 100 to 1000 | 100 to 1000 | CS(=O)(=O)CCNCc1cccc(Nc2nccc(-c3c(-c4cccc(NC(=O)Cc5cccs5)c4)nn4ccccc34)n2)c1 [Example 41, N-{3-[3-(2-{[3-({[2-(Methylsulfonyl)ethyl]amino}methyl)phenyl]-amino}-4-pyrimidinyl)pyrazolo[1,5-a]pyridin-2-yl]phenyl}-2-(2-thienyl)acetamide] | +++ (B) (at least one pIC50 measurement of greater than 7 against either ErbB2 or EGFR) |
| 100 to 1000 | > 1000 | NCc1cccc(Nc2nccc(-c3c(-c4cccc(NC(=O)Cc5cccs5)c4)nn4ccccc34)n2)c1 [Example 42, N-{3-[3-(2-{[3-(Aminomethyl)phenyl]amino}-4-pyrimidinyl)pyrazolo[1,5-a]pyridin-2-yl]phenyl}-2-(2-thienyl)acetamide] | +++ (B) (at least one pIC50 measurement of greater than 7 against either ErbB2 or EGFR) |
| > 1000 | > 1000 | CN1CCC(N(C)CCOc2cc(Nc3nccc(-c4c(-c5cccc(NC(=O)Cc6cccs6)c5)nn5ccccc45)n3)ccc2Cl)C1 (stereo not drawn) [Example 46, N-{3-[3-(2-{[4-Chloro-3-({2-[methyl(1-methyl-3-pyrrolidinyl)amino]-ethyl}oxy)phenyl]amino}-4-pyrimidinyl)pyrazolo[1,5-a]pyridin-2-yl]phenyl}-2-(2-thienyl)acetamide] | +++ (B) (at least one pIC50 measurement of greater than 7 against either ErbB2 or EGFR) |
| 100 to 1000 | < 100 | COc1ccc(Nc2nccc(-c3c(-c4cccc(NC(=O)Cc5cccs5)c4)nn4ccccc34)n2)cc1N1CCN(CCS(C)(=O)=O)CC1 [Example 47, N-[3-(3-{2-[(4-(Methyloxy)-3-{4-[2-(methylsulfonyl)ethyl]-1-piperazinyl}phenyl)amino]-4-pyrimidinyl}pyrazolo[1,5-a]pyridin-2-yl)phenyl]-2-(2-thienyl)acetamide] | +++ (B) (at least one pIC50 measurement of greater than 7 against either ErbB2 or EGFR) |
| 100 to 1000 | 100 to 1000 | COc1ccc(-c2nn3ccccc3c2-c2ccnc(Nc3ccc4c(c3)CC(N(C)C)C4)n2)cc1NC(=O)Cc1cccs1 (stereo not drawn) [Example 48, N-{5-[3-(2-{[2-(Dimethylamino)-2,3-dihydro-1H-inden-5-yl]amino}pyrimidin-4-yl)pyrazolo[1,5-a]pyridin-2-yl]-2-methoxyphenyl}-2-(2-thienyl)acetamide] | + (B) (no pIC50 measurement greater than 6 against either ErbB2 or EGFR) |
| > 1000 | 100 to 1000 | COc1ccc(-c2nn3ccccc3c2-c2ccnc(Nc3ccc4c(c3)CN(C)CC4)n2)cc1NC(=O)Cc1cccs1 [Example 49, N-[2-Methoxy-5-(3-{2-[(2-methyl-1,2,3,4-tetrahydroisoquinolin-7-yl)amino]pyrimidin-4-yl}pyrazolo[1,5-a]pyridin-2-yl)phenyl]-2-(2-thienyl)acetamide] | + (B) (no pIC50 measurement greater than 6 against either ErbB2 or EGFR) |
| 100 to 1000 | 100 to 1000 | CN1CCc2ccc(Nc3ncc(F)c(-c4c(-c5cccc(NC(=O)c6c(F)cccc6F)c5)nn5ccccc45)n3)cc2C1 [Example 51, 2,6-Difluoro-N-[3-(3-{5-fluoro-2-[(2-methyl-1,2,3,4-tetrahydro-7-isoquinolinyl)amino]-4-pyrimidinyl}pyrazolo[1,5-a]pyridin-2-yl)phenyl]benzamide] | +++ (B) (at least one pIC50 measurement of greater than 7 against either ErbB2 or EGFR) |
| > 1000 | > 1000 | Cc1ccc(-c2nn3ccccc3c2-c2ccnc(Nc3cccc(CN4CCCC4)c3)n2)cc1NC(=O)Cc1cccs1 [Example 56, N-{2-Methyl-5-[3-(2-{[3-(1-pyrrolidinylmethyl)phenyl]amino}-4-pyrimidinyl)pyrazolo[1,5-a]pyridin-2-yl]phenyl}-2-(2-thienyl)acetamide] | ++ (B) (at least one pIC50 measurement greater than 6 against either ErbB2 or EGFR but no measurement greater than pIC50 of 7) |
